Measurements: US20220305090A1, “HAIR GROWING AGENT AND FOOD OR BEVERAGE PRODUCT COMPRISING SAME” (NITTA GELATIN INC., priority 2019, published 2022)

How the values were obtained:
[1] = tested on: human normal hair papilla cells HFDPC-C; assay: Cell growth test on hair papilla cells (neutral red method, living cell number vs purified water control); format: cell-based; conditions: for Growth rate control = 100: 72 hours culture; for Assessment: Table 1
Procedure: First, human normal hair papilla cells HFDPC-C (manufactured by Takara Bio Inc.) were obtained, and the hair papilla cells were then seeded at 0.2×10^4/dish in each well of a 96-well plate for cell culture (manufactured by Corning Inc.). Further, 200 μL of a basal medium (trade name: “Follicle Dermal Papilla Cell Basal Medium”, manufactured by Takara Bio Inc.) containing a growth factor accompanying the obtained hair papilla cells was supplied to each well, and the hair papilla cells were precultured in each well at 37° C. for 24 hours.
Next, the hair papilla cells were confirmed to be subconfluent, and the basal medium in each well was then replaced by 200 μL of another basal medium (trade name: “Follicle Dermal Papilla Cell Basal Medium”, manufactured by Takara Bio Inc.) free of the growth factor described above. In this way, hair papilla cells to be used for determining whether or not addition of the above-described samples promote cell growth were prepared.
To the hair papilla cells prepared as described above, amino acids, combinations of amino acids, peptides and collagen peptide mixtures which are the samples described above were added at final concentrations shown in Tables 1 and 2, and the hair papilla cells were cultured in each well at 37° C. for 72 hours. Here, to one of the wells containing the hair papilla cells prepared as described above, 20 μL, of purified water was added, and as with other hair papilla cells, culturing was performed at 37° C. for 72 hours to prepare a control test sample (control). Thereafter, for each of the hair papilla cells in the wells containing purified water or the samples, the number of living cells (living cell number) was counted by a neutral red method. Here, the “neutral red method” is a method in which neutral red is added at a final concentration of 150 μg/mL into a well where cells are cultured, the cells are cultured for 20 minutes, and washed with PBS (phosphate buffer physiological saline), 200 μL of a 50 mass % ethanol solution containing 1 mass % acetic acid is added into the well as an extraction liquid, the mixture is stirred, and the absorbance of the well containing the neutral red is measured at a wavelength of 540 nm to measure the number of living cells in the well.
The number of living cells of hair papilla cells in the well containing the sample with respect to the number of living cells of hair pallia cells in the well containing purified water (control test sample) was determined as a cell growth rate (%) to evaluate the hair papilla cell growth promoting action in the sample. Further, the cell growth rate (%) was subjected to statistical processing to evaluate significance of the hair papilla cell growth promoting action in the sample. […] Thereafter, the Student's t-test (t-test) was conducted to evaluate significance. […] In Tables 1 and 2, samples with “++” were determined to have a significance in the hair papilla cell growth promoting action. In samples with “+”, the cell growth rate (%) exceeded 100.

[2] = tested on: hairless mice; assay: Test for confirming hair development effect and hair growth effect using hairless mouse (visual amount of head hair); format: in vivo
Excerpt: Thirty 8-week-old male and female hairless mice were provided by purchase from Hoshino Laboratory Animals, Inc. The hairless mice were divided into five groups each consisting of six mice with no regard to sex. Specifically, the plurality of groups consist of a normal group given a normal feed (trade name: “Labo MR Stock”, manufactured by Nosan Corporation), a control group given magnesium-deficient specialty feed (trade name: “HR-AD Feed”, manufactured by Nosan Corporation), a first group given a mixed feed obtained by adding Pro-Hyp at a content of 0.3 mass % to the magnesium-deficient specialty feed, a second group given a mixed feed obtained by adding the collagen peptide mixture A at a content of 5 mass % to the magnesium-deficient specialty feed, and a third group given a mixed feed obtained by adding a collagen peptide mixture C of the later-described composition at a content of 2.5 mass % to the magnesium-deficient specialty feed.
The heads of the hairless mice in the above-described groups were observed immediately after they were reared for 3 weeks to 11 weeks of age under the following conditions: the temperature was 23±2° C., the relative humidity was 55±10%, the lighting cycle was 12 hours, the light period started at 7:00 and ended at 19:00, and the mice were allowed to freely eat. […] At the time of obtaining the hairless mice, their heads had no hair.
Further, a 2-week-old hairless mouse before starting to lose its hair was obtained from Hoshino Laboratory Animals, Inc., and relative to the amount of head hair of the hairless mouse which is defined as 10, the amount of head hair of each of the 11-week-old hairless mice in each group was visually measured. […] Each of the values in the table represents an average of the amounts of head hair of the six hairless mice in each group.

## proline-hydroxyproline [PO]
[1]; conclusion from Tables 1, 2 and 4
  Hair papilla cell growth promoting action (in words): had a hair papilla cell growth promoting action
[1]; final concentration 0.05 mM
  Growth rate control = 100: 126 ± 8%
  Assessment: ++
[1]; final concentration 0.5 mM
  Growth rate control = 100: 127 ± 3%
  Assessment: ++
[1]; final concentration 5 mM
  Growth rate control = 100: 129 ± 6%
  Assessment: ++
[2]; First group: 0.3 mass % in magnesium-deficient specialty feed, 3 weeks, 11-week-old hairless mice, average of six
  Score (amount of head hair, 2-week-old hairless mouse = 10): 8
[2]; conclusion from Table 3
  Effectiveness as hair growing agent (in words): effective as hair growing agents
[2]; mixed feed with 0.3 mass % Pro-Hyp, 11-week-old hairless mice, compared with control group
  Hair development in the hair of head (FIG. 2 vs FIG. 1): hair development occurred in the hair of head
